Values joined by “and” are separate entries in the source; they are usually repeats but may differ in a detail not shown here. Identical values can stand only once. Like-named read-outs stand apart in the source and are kept apart here.
Assays:
[1] = target: T1, ENT1 (Homo sapiens, UniProt Q99808); test: Inhibition of 3H-nucleoside influx by BAs in ENT1-expressing Xenopus oocytes; type: cell-based; details: 3H-Ado 20 μM, sodium-free buffer; for ENT1 % uptake inhibition (Ado): BA 100 μM
T1 construct: The complete ORF of ENT1 (amplified using forward primer); expressed in transfected cells; host or cells: Xenopus laevis oocytes injected with in vitro-transcribed capped mRNA from pOX-hENT1
T1 sequence (Q99808 1-456): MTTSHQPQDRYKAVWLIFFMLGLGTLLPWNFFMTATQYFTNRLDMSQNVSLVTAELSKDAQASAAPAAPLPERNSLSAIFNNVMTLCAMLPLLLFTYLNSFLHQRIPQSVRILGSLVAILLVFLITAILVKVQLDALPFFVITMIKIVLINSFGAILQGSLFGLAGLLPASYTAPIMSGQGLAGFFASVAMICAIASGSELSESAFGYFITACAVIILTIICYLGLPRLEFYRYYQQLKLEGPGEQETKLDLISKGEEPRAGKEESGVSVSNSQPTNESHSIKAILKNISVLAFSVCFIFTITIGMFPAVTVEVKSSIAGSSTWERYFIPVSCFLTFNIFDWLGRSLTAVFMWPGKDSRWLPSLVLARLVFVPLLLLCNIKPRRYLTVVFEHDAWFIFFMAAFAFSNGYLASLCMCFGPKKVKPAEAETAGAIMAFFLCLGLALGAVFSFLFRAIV
Text: We expressed individual ENTs (ENT1, ENT2, and ENT3) in X. laevis oocytes (as described above) and analyzed the Ado influx from each of the ENTs in the presence of different BAs to better understand whether the inhibition profiles differ across human ENTs. […] We also conducted an analysis of the concentration-dependent inhibition of Ado transport to estimate the IC50 values of the BAs (Fig. 4, D–F and Table 2).
Inhibition of Ado influx in H2O- and ENT-injected oocytes by treatment with different BAs at 100 μM. D–F, concentration-dependent inhibition of Ado influx in ENT-injected oocytes by different BAs. The bars represent the mean ± SD (n = 8–12 oocytes). A representative experiment from 3 to 5 independent experiments is presented. Statistical analysis was performed using one-way ANOVA with Dunnett’s multiple comparisons test; ∗p < 0.032, ∗∗p < 0.0021, ∗∗∗∗p < 0.0001.
The generated pOX expression constructs were linearized with either the Not1 or Sac1 restriction enzymes. The digested products were purified via phenol‒chloroform extraction. The mRNAs were synthesized using mMESSAGE mMACHINE (Ambion) transcription kits according to the manufacturer’s instructions. The mRNAs were purified via lithium precipitation. Oocytes were procured from Ecocyte. Prior to experiments, procured oocytes were defolliculated by treating with collagenase A-OR II solution followed by washing with Barth’s solution. Following microscopic verification, selected oocytes were incubated to recover overnight at 25 °C in a shaker incubator. Fifty nanoliters (400–800 ng/μl) of equal amounts of mRNAs were injected into defolliculated oocytes the next day. Expression of plasmids was analyzed after RNA isolation from oocyte extracts and conducting qPCR analysis with gene-specific primers as described earlier ([30]). The injected oocytes were incubated at 15 °C for 24 h before transport assays were performed. […] Uptake was terminated by washing the oocytes three times with arrest buffer containing 20 mM uridine. Individual oocytes were shaken overnight in 10% SDS for complete dissolution, and then the radioactivity was quantified with a Beckman liquid scintillation counter. The data are presented as the mean ± SD (n = 8–12 oocytes). A representative experiment from 3 to 5 independent experiments is presented.

[2] = target: T1, ENT1; test: Radiolabeled BA transport in ENT1 mRNA-injected Xenopus oocytes; type: cell-based; details: 3H-labelled BA, Na+-containing buffer, pH 7.4
Procedure: We used a Xenopus oocyte-based transport assay that was previously used to examine BA transport by plasma membrane–directed ENT3 with a truncated N-terminus (that harbors lysosomal targeting motif) to experimentally verify whether ENT2 is capable of translocating BAs across the cell membrane ([24]). We tested both ENT1 and ENT2 along with CNT2, a purine nucleoside-specific concentrative transporter, to investigate their capacities to transport radiolabeled BAs. […] Transport was measured at pH 7.4, which is the closest pH to the pH of the extracellular fluid in which cells are exposed to solutes such as BAs to conduct plasma membrane transport ([29]).
The generated pOX expression constructs were linearized with either the Not1 or Sac1 restriction enzymes. The digested products were purified via phenol‒chloroform extraction. The mRNAs were synthesized using mMESSAGE mMACHINE (Ambion) transcription kits according to the manufacturer’s instructions. The mRNAs were purified via lithium precipitation. Oocytes were procured from Ecocyte. Prior to experiments, procured oocytes were defolliculated by treating with collagenase A-OR II solution followed by washing with Barth’s solution. Following microscopic verification, selected oocytes were incubated to recover overnight at 25 °C in a shaker incubator. Fifty nanoliters (400–800 ng/μl) of equal amounts of mRNAs were injected into defolliculated oocytes the next day. Expression of plasmids was analyzed after RNA isolation from oocyte extracts and conducting qPCR analysis with gene-specific primers as described earlier ([30]). The injected oocytes were incubated at 15 °C for 24 h before transport assays were performed. The uptake of radiolabeled substrates was measured after a 30 min incubation in transport buffer (100 mM NaCl, 2 mM KCl, 1 mM CaCl2, 1 mM MgCl2, and 10 mM Hepes, pH 7.4) at room temperature. […] Individual oocytes were shaken overnight in 10% SDS for complete dissolution, and then the radioactivity was quantified with a Beckman liquid scintillation counter. […]

[3] = read-out: ENT1 IC50 (Ado uptake)

| Structure (SMILES) | IC50 [1, 3] [µM] | ENT1 % uptake inhibition (Ado) [1] | transport of BA by ENT1 [2] | IC50 ([1]; ENT1 IC50 (Ado uptake)) [µM] |
| --- | --- | --- | --- | --- |
| C[C@H](CCC(=O)O)[C@H]1CC[C@H]2[C@@H]3[C@H](O)C[C@@H]4C[C@H](O)CC[C@]4(C)[C@H]3C[C@H](O)[C@]12C [CA, cholic acid] | 42.1 ± 8.7 | 45.48% | incapable of transporting |  |
| C[C@H](CCC(=O)O)[C@H]1CC[C@H]2[C@@H]3CC[C@@H]4C[C@H](O)CC[C@]4(C)[C@H]3C[C@H](O)[C@]12C [DCA, deoxycholic acid] | 56.4 ± 14.9 | 69% and 71.01% | incapable of transporting |  |
| C[C@H](CCC(=O)NCCS(=O)(=O)O)[C@H]1CC[C@H]2[C@@H]3[C@H](O)C[C@@H]4C[C@H](O)CC[C@]4(C)[C@H]3C[C@H](O)[C@]12C [TCA, taurocholic acid] |  | 80.39% | incapable of transporting | 52.9 ± 14.6 |
